Results published in PubChem BioAssay (NCI).
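The compound was tested at five concentrations on cells cultured in 96-well plates, with a 48-hour exposure period. GI50 is the concentration that inhibits growth by half. TGI: concentration producing complete growth inhibition.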

How the values were obtained:
Assay in all cases: inhibition of tumour cell growth, NCI panel, 48 h
SK-OV-3 ovarian = system: SK-OV-3 ovarian
SF-295 CNS = system: SF-295 CNS
A498 renal = system: A498 renal
PC-3 prostate = system: PC-3 prostate
HS 578T breast = system: HS 578T breast
HT29 colon = system: HT29 colon
T-47D breast = system: T-47D breast
MCF7 breast = system: MCF7 breast
UACC-62 melanoma = system: UACC-62 melanoma
LOX IMVI melanoma = system: LOX IMVI melanoma
SR leukemia = system: SR leukemia
MALME-3M melanoma = system: MALME-3M melanoma
SNB-75 CNS = system: SNB-75 CNS
SF-539 CNS = system: SF-539 CNS
HOP-62 NSCLC = system: HOP-62 NSCLC
HOP-92 NSCLC = system: HOP-92 NSCLC
MDA-MB-231 breast = system: MDA-MB-231 breast
RPMI-8226 leukemia = system: RPMI-8226 leukemia
SK-MEL-5 melanoma = system: SK-MEL-5 melanoma
SN12C renal = system: SN12C renal
HL-60(TB) leukemia = system: HL-60(TB) leukemia
SK-MEL-28 melanoma = system: SK-MEL-28 melanoma
EKVX NSCLC = system: EKVX NSCLC
BT-549 breast = system: BT-549 breast
ACHN renal = system: ACHN renal
DU-145 prostate = system: DU-145 prostate
786-0 renal = system: 786-0 renal
NCI/ADR-RES ovarian = system: NCI/ADR-RES ovarian
HCT-116 colon = system: HCT-116 colon
CAKI-1 renal = system: CAKI-1 renal

COc1ccc(CCN2C(=O)/C(=C/c3csc(C#N)n3)SC2=S)cc1
TGI (SK-OV-3 ovarian): 37.4 µM | GI50 (SF-295 CNS): 17.3 µM | TGI (SF-295 CNS): 33.9 µM | GI50 (A498 renal): 16.7 µM | TGI (A498 renal): 30.3 µM | GI50 (PC-3 prostate): 12 µM | TGI (PC-3 prostate): 26.7 µM | GI50 (HS 578T breast): 21.8 µM | TGI (HS 578T breast): 64.9 µM | GI50 (HT29 colon): 14.1 µM | TGI (HT29 colon): 27.1 µM | GI50 (T-47D breast): 5.7 µM | TGI (T-47D breast): 30.2 µM | GI50 (MCF7 breast): 4.31 µM | TGI (MCF7 breast): 15.9 µM | GI50 (UACC-62 melanoma): 10.9 µM | TGI (UACC-62 melanoma): 22.9 µM | GI50 (LOX IMVI melanoma): 3.04 µM | TGI (LOX IMVI melanoma): 10.5 µM | GI50 (SR leukemia): 3.59 µM | TGI (SR leukemia): 32.4 µM | GI50 (MALME-3M melanoma): 14.3 µM | TGI (MALME-3M melanoma): 28.9 µM | GI50 (SNB-75 CNS): 16.1 µM | TGI (SNB-75 CNS): 31 µM | GI50 (SF-539 CNS): 10.5 µM | TGI (SF-539 CNS): 22.3 µM | GI50 (HOP-62 NSCLC): 17.5 µM | TGI (HOP-62 NSCLC): 32 µM | GI50 (HOP-92 NSCLC): 2.13 µM | TGI (HOP-92 NSCLC): 15.1 µM | GI50 (MDA-MB-231 breast): 11.6 µM | TGI (MDA-MB-231 breast): 24.1 µM | GI50 (RPMI-8226 leukemia): 4.29 µM | TGI (RPMI-8226 leukemia): 30.6 µM | GI50 (SK-MEL-5 melanoma): 15.1 µM | TGI (SK-MEL-5 melanoma): 28.3 µM | GI50 (SN12C renal): 12.3 µM | TGI (SN12C renal): 24.8 µM | GI50 (HL-60(TB) leukemia): 14.5 µM | TGI (HL-60(TB) leukemia): 46.8 µM | GI50 (SK-MEL-28 melanoma): 12.1 µM | TGI (SK-MEL-28 melanoma): 24.5 µM | GI50 (EKVX NSCLC): 18.5 µM | TGI (EKVX NSCLC): 34.4 µM | GI50 (BT-549 breast): 8.93 µM | TGI (BT-549 breast): 21.7 µM | GI50 (ACHN renal): 14.1 µM | TGI (ACHN renal): 27.1 µM | GI50 (DU-145 prostate): 4.6 µM | TGI (DU-145 prostate): 15.6 µM | GI50 (786-0 renal): 10.2 µM | TGI (786-0 renal): 22.2 µM | GI50 (NCI/ADR-RES ovarian): 15.9 µM | TGI (NCI/ADR-RES ovarian): 32.3 µM | GI50 (HCT-116 colon): 7.69 µM | TGI (HCT-116 colon): 20.7 µM | GI50 (CAKI-1 renal): 16.9 µM | TGI (CAKI-1 renal): 31.4 µM
